# Legend:
# L-1210 leukemia = experiment: first experiment: L-1210 leukemia in mice, T/C percentage and long term survival; type: in vivo; conditions: for Survival after 60 days: survivors/animals; for antitumor activity (in words): versus c-DDP and ligand alone
# Description: Pt(DMSO)Cl2 ].2HCl.H2 O (coded BBR 1651), water soluble, and cis-[1,4-bis-[2-(2-hydroxyethylamino)ethylamino]-5,8-dihydroxy-9,10-anthracenedione.PtCl2 ].2HCl.H2 O (coded BBR 1734) are tested in comparison with equimolecular dosages of 1,4-bis-[2-(2-hydroxyethylamino)ethylamino]-5,8-dihydroxy-9,10-anthracenedione (DHAQ.2HCl) and with c-DDP dosed at 7 mg/kg, against L-1210 leukemia in mice. Groups of 10 animals, treated with intraperitoneal injections of […] L-1210 cells, have been used at each dosage level, evaluating T/C percentage and long term survival, i.e. more than sixty days.
# (§1) T/C percentage represents the percentual ratio of the mean survival time of the treated animals in comparison with the mean survival time of the control animals according to the methods described in "Anthracycline antibiotics" H. S. E. R Rhadem Edit., Academic Press, 1982.
# (§2) LTS represents number of long-term (over 60 days) surviving animals with no pathologic episodes (i.e. cured animals).
# A percentage of T/C over 120 indicates antitumoral activity; a percentage of T/C under 85 indicates toxicity.
# [1] = test system: L-1210 leukemia sensitive to c-DDP; experiment: second experiment: L-1210 leukemia sensitive to c-DDP, T/C, LTS, TOX; type: in vivo, mice; conditions: for percentage of survivors at 60 days: 8.7.10^-6 mol/kg; for TOX (3): toxic deaths; for T/C percentage: L-1210 leukemia (sensitive to Pt), c-DDP 7 mg/kg, BBR 1734 1.55 mg/kg, BBR 1735 8 mg/kg
# Description: as §1, §2
# (§3) (1) T/C: Mean survival time of treated mice/mean survival time of control
# (untreated) mice × 100.
# Mean survival time of treated mice is referred to dying animals only.
# (2) LTS: Longterm survivors (>60 days), i.e. cured animals. Mean survival
# (§4) (3) TOX: Toxic deaths are referred to animals dead before control animals
# (§5) or to animals showing macroscopic toxic symptoms without tumor.
# The data reported in Table 2 are the means of two subsequent experiments.
# [2] = test system: c-DDP resistant L-1210 leukemia; experiment: c-DDP resistant L-1210 leukemia, T/C, LTS, TOX; type: in vivo, mice; conditions: for activity (in words): animals injected with cis-platin resistant leukemia cells; for TOX (3): toxic deaths
# Description: as §1, §3
# (untreated) mice × 100. Mean survival time of treated mice is
# referred to dying animals only. N.ev.: not evaluable as consequence of th
# (2) LTS: Longterms survivors (>30 days), i.e. cured animals.
# as §4, §5
# [3] = Acute toxicity (LD50) in mouse; type: in vivo; conditions: intraperitoneal route
# [4] = body weight, kidney weight and ureic nitrogen (nephrotoxicity) at LD50 doses; type: in vivo, mouse; conditions: i.v.; for general toxicity / body weight (in words) / renal toxicity (in words): LD50 doses; for % Δ of the body weight / Final body weight / Kidney weight / Kidney weight g/100 of body weight / Initial body weight / Ureic Nitrogen: dose corresponding to respective LD50; for Initial body weight: before treatment; for Ureic Nitrogen: urea content
# Description: The percent decrease of the body weight, the kidney weight and the ureic nitrogen excretion were determined for each treated group. The increase of kidney weight and the increase of ureic plasma content were assumed as nephrotoxic index of the compounds (see for example O. Tofanetti et al., "Tumori", 69, 105, 1983).
# [5] = test system: genito-urinary tumors, head and neck cancer, osteogenic sarcoma; conditions: human, in vivo; cited from earlier work
# [6] = 1.93 × 10^-6 moles/kg (BBR 1734 1.55, BBR 1651 1.85, DHAQ.2HCl 1.00 mg/kg)
# [7] = 3.86 × 10^-6 moles/kg (BBR 1734 3.10, BBR 1651 3.70, DHAQ.2HCl 2.00 mg/kg)
# [8] = 7.73 × 10^-6 moles/kg (BBR 1734 6.20, BBR 1651 7.40, DHAQ.2HCl 4.00 mg/kg)
# [9] = 1.93 × 10^-6 moles/kg (DHAQ.2HCl 1.0, BBR 1651 1.85 mg/kg)
# [10] = 3.86 × 10^-6 moles/kg (DHAQ.2HCl 2.0, BBR 1651 3.7 mg/kg)
# [11] = 7.73-8.68 × 10^-6 moles/kg (DHAQ.2HCl 4.0-4.5, BBR 1651 7.4-8.32 mg/kg)
# [12] = 12.93 × 10^-6 moles/kg (DHAQ.2HCl 6.7, BBR 1651 12.40 mg/kg)
# [13] = 19.3 × 10^-6 moles/kg (DHAQ.2HCl 10.0, BBR 1651 18.5 mg/kg)
# [14] = 19.3 × 10^-6/kg (BBR 1651 18.5 mg/kg)
# [15] = 28.95 × 10^-6/kg (BBR 1651 27.75 mg/kg)
# [16] = 5.79 × 10^-6/kg (DHAQ-2HCl 3.0 mg/kg)
# [17] = 8.68 × 10^-6/kg (DHAQ-2HCl 4.5 mg/kg)
# [18] = 21 × 10^-6 moles/kg (c-DDP 7.00 mg/kg)
# [19] = 21 × 10^-6/kg (c-DDP 7.1 mg/kg)
# [20] = 29.6 × 10^-6/kg (c-DDP 10.0 mg/kg)
compound,measurement,setting,value
"CS(C)=O.CS(C)=O.Cl.Cl.O.O=C1c2c(O)ccc(O)c2C(=O)c2c(NCCNCCO)ccc(NCCNCCO)c21.[Cl][Pt][Cl] [BBR 1651, cis-[1,4-bis-[2-(2-hydroxyethylamino)ethylamino]-5,8-dihydroxy-9,10-anthracenedione. Pt(DMSO)Cl2].2HCl.H2 O]",% T/C,L-1210 leukemia; [6],195%
same,Survival after 60 days,L-1210 leukemia; [6],0/10
same,% T/C,L-1210 leukemia; [7],220%
same,Survival after 60 days,L-1210 leukemia; [7],1/10
same,Survival after 60 days,L-1210 leukemia; [8],7/10
same,antitumor activity (in words),L-1210 leukemia,good activities with better results than those obtained using the known c-DDP and the aminoanthracenedione ligand alone
same,T/C,[1]; 1.39.10^-6 g/atom of Pt,200
same,LTS (2) (>60 days),[1]; [9],0/10
same,T/C (1) %,[1]; [9],200%
same,LTS (2) (>60 days),[1]; [10],1/10
same,T/C (1) %,[1]; [10],221%
same,LTS (2) (>60 days),[1]; [11],15/20
same,percentage of survivors at 60 days,[1],90%
same,LTS (2) (>60 days),[1]; [12],9/10
same,LTS (2) (>60 days),[1]; [13],9/10
same,longterms survivors (>60 days; i.e. cured animals),[1]; equal platinum content,9
same,increase of the dead animals before control animals,[1]; in words,did not cause any increase of the dead animals before control animals
same,activity compared with c-DDP (in words),"[1]; mouse, in vivo",extremely more active than the known c-DDP
same,TOX (3),[1]; [9],0/10
same,TOX (3),[1]; [10],0/10
same,TOX (3),[1]; [11],0/20
same,TOX (3),[1]; [12],0/10
same,LTS (2) (>30 days),[2]; [14],3/10
same,T/C (1) %,[2]; [14],186%
same,LTS (2) (>30 days),[2]; [15],4/10
same,activity (in words),[2],active drug
same,TOX (3),[2]; [14],0/10
same,TOX (3),[2]; [15],1/10
"Cl.Cl.O.O=C1c2c(O)ccc(O)c2C(=O)c2c3ccc(c21)NCC[NH+](CCO)[Pt-2]([Cl])([Cl])[NH+](CCO)CCN3 (stereo not drawn) [BBR 1734, cis-[1,4-bis-[2-(2-hydroxyethylamino)ethylamino]-5,8-dihydroxy-9,10-anthracenedione.PtCl2].2HCl.H2 O]",% T/C,L-1210 leukemia; [6],200%
same,Survival after 60 days,L-1210 leukemia; [6],0/10
same,% T/C,L-1210 leukemia; [7],224%
same,Survival after 60 days,L-1210 leukemia; [7],1/10
same,Survival after 60 days,L-1210 leukemia; [8],7/10
same,antitumor activity (in words),L-1210 leukemia,good activities with better results than those obtained using the known c-DDP and the aminoanthracenedione ligand alone
same,T/C percentage,[1],~200
same,Acute toxicity (LD50),[3],22.9 mg/kg
same,general toxicity / body weight (in words),[4],general toxicity as indicated by the decrease of the body weight
same,renal toxicity (in words),[4],do not impair the renal excretory function and/or change the relative kidney weight
same,% Δ of the body weight,[4],-20.4%
same,Final body weight,[4],28.4 ± 0.775
same,Kidney weight,[4],0.362 ± 0.012
same,Kidney weight g/100 of body weight,[4],1.282 ± 0.036 g/100 of body weight
same,Initial body weight,[4],34.2 ± 0.731
same,Ureic Nitrogen,[4],14.85 ± 0.866 100 mg/ml of plasma
"Cl.Cl.O.O=C1c2ccccc2C(=O)c2c3ccc(c21)NCC[NH+](CCO)[Pt-2]([Cl])([Cl])[NH+](CCO)CCN3 (stereo not drawn) [BBR 1735, cis-[1,4-bis-[2-(2-hydroxyethylamino-ethyl)-amino]-9,10-anthracenedione.PtCl2].2HCl.H2 O]",T/C percentage,[1],~200
same,Acute toxicity (LD50),[3],30.0 mg/kg
same,general toxicity / body weight (in words),[4],general toxicity as indicated by the decrease of the body weight
same,renal toxicity (in words),[4],do not impair the renal excretory function and/or change the relative kidney weight
same,% Δ of the body weight,[4],-5.4%
same,Final body weight,[4],33.1 ± 1.103
same,Kidney weight,[4],0.428 ± 0.02
same,Kidney weight g/100 of body weight,[4],1.293 ± 0.042 g/100 of body weight
same,Initial body weight,[4],34.9 ± 0.857
same,Ureic Nitrogen,[4],14.88 ± 0.565 100 mg/ml of plasma
"O=C1c2c(O)ccc(O)c2C(=O)c2c(NCCNCCO)ccc(NCCNCCO)c21 [DHAQ.2HCl, 1,4-bis-[2-(2-hydroxyethylamino)ethylamino]-5,8-dihydroxy-9,10-anthracenedione]",% T/C,L-1210 leukemia; [6],185%
same,% T/C,L-1210 leukemia; [7],214%
same,Survival after 60 days,L-1210 leukemia; [7],0/10
same,Survival after 60 days,L-1210 leukemia; [8],2/10
same,% T/C,L-1210 leukemia; 7.73 × 10^-6 moles/kg (DHAQ.2HCl 4.00 mg/kg),235%
same,LTS (2) (>60 days),[1]; [9],0/10
same,T/C (1) %,[1]; [9],185%
same,LTS (2) (>60 days),[1]; [10],0/10
same,T/C (1) %,[1]; [10],214%
same,T/C (1) %,"[1]; 7.73-8.68 × 10^-6 moles/kg (DHAQ.2HCl 4.0-4.5 mg/kg), range in parenthesis",302 (235-369) %
same,LTS (2) (>60 days),[1]; [11],8/20
same,percentage of survivors at 60 days,[1],10%
same,T/C (1) %,[1]; 12.93 × 10^-6 moles/kg (DHAQ.2HCl 6.7 mg/kg),262%
same,LTS (2) (>60 days),[1]; [12],4/10
same,T/C (1) %,[1]; 19.3 × 10^-6 moles/kg (DHAQ.2HCl 10.0 mg/kg),231%
same,LTS (2) (>60 days),[1]; [13],1/10
same,increase of death rate in comparison with the control animals,[1]; Higher doses of DHAQ,up to 90%
same,TOX (3),[1]; [9],0/10
same,TOX (3),[1]; [10],0/10
same,TOX (3),[1]; [11],2/20
same,TOX (3),[1]; [12],5/10
same,TOX (3),[1]; [13],9/10
same,LTS (2) (>30 days),[2]; [16],1/10
same,T/C (1) %,[2]; [16],145%
same,LTS (2) (>30 days),[2]; [17],2/10
same,T/C (1) %,[2]; [17],168%
same,TOX (3),[2]; [16],0/10
same,TOX (3),[2]; [17],0/10
"N.N.[Cl][Pt][Cl] [c-DDP, cis-diaminodichloroplatinum^II]",% T/C,L-1210 leukemia; [18],200%
same,Survival after 60 days,L-1210 leukemia; [18],0/10
same,LTS (2) (>60 days),[1]; 21 × 10^-6 moles/kg (c-DDP 7.1 mg/kg),0/20
same,T/C (1) %,"[1]; 21 × 10^-6 moles/kg (c-DDP 7.1 mg/kg), range in parenthesis",193 (187-200) %
same,T/C (1) %,"[1]; 21 × 10^-6 moles/kg (c-DDP 7.1 mg/kg), range in parenthesis, listed as cis-platin",193%
same,LTS (2) (>60 days),[1]; 29.2 × 10^-6 moles/kg (c-DDP 10.0 mg/kg),1/20
same,T/C (1) %,"[1]; 29.2 × 10^-6 moles/kg (c-DDP 10.0 mg/kg), range in parenthesis",93 (87-100) %
same,T/C percentage,[1],~200
same,LTS (2) (>30 days),[2]; [19],0/10
same,T/C (1) %,[2]; [19],100%
same,LTS (2) (>30 days),[2]; [20],0/10
same,T/C (1) %,[2]; [20],100%
same,activity (in words),[2],uneffective
same,clinical activity (in words),[5],activity is well demonstrated
same,serious side effects (in words),[5],"gastrointestinal (nausea and vomiting often severe and prolungated), renal (dose-limiting renal insufficiency), hematological, neurological (ototoxicity) complications"
